Key:
[1] = test system: human Th17 cells (total CD4+ T-cells); assay: RORγt target gene expression in Th17 cells by qRT-PCR; format: cell-based; conditions: Th17 polarization 72 h, concentration-dependent
Method: (§1) Total, naive and memory CD4^+ T cells were isolated from Peripheral blood mononuclear cells (PBMCs) from healthy volunteers by density gradient centrifugation using Ficoll Paque (GE). Total, naive or memory CD4^+ T-cells were prepared by immunomagnetic separation using the respective CD4^+ T-cell enrichment kits resulting in untouched highly purified subsets (EasySep™, Stem Cell). Purity was assessed by flow cytometry and was between 95 and 98% for the total CD4^+ T-cells. The purity of naive (CD45RA^+CD45RO^−) and memory (CD45RA^−CD45RO^+) CD4^+T-cells ranged between 95 and 98%, respectively. For T-cell stimulation experiments, cells were treated as previously published ([44]). Briefly, T-cells were stimulated with plate-bound monoclonal antibodies against CD3 (1 μg/ml, clone OKT-3, BioXcell) and CD28 (1 μg/ml, clone CD28.2, BioLegend). For Th17 polarization assays, IL-6 (20 ng/ml), TGF-β1 (5 ng/ml), IL-1β (10 ng/ml), and IL-23 (10 ng/ml) were added. For Th1 polarization assays, IL-12 (10 ng/ml) and anti-IL-4 antibody (5 μg/ml), for Th2 polarizations, IL-4 (10 ng/ml) and anti-IFN-γ antibody (5 μg/ml) were added. For Th0 polarization assays, cells were only stimulated with CD3 and CD28 antibodies. Supernatants were collected after 3 or 7 days of incubation for total or naive/memory CD4^+ T-cell polarizations, respectively. Cytokine concentrations were quantified by ELISA according to the manufacturer's instructions (eBioscience or BioLegend).
Total RNA from human Th17 cells (6 × 10^5 cells), RORγt-RORE HUT78 cells (4 × 10^5 cells) and HaCaT cells (6 × 10^4 cells) was extracted using RNeasy kit including a DNAse I digestion step according to the manufacturer‘s protocol (Qiagen). Frozen skin biopsies (8 mm punches) were resuspended in RLT buffer (Qiagen) containing 1% β-mercaptoethanol and homogenized using a Precellys-Cryolys device (Bertin Instruments) according to the manufacturer's instructions. cDNAs were prepared with the High Capacity cDNA Reverse Transcription Kit (Applied Biosystems). Quantitative RT-PCR analysis was performed using a TaqManViiA7 (Applied Biosystems). All runs were accompanied by the internal control gene human β-glucoronidase (Gus) (431088E). The samples were run in triplicate or in hexaplicate and normalized to Gus using the ΔΔCt method to provide arbitrary units representing relative expression levels. The following Taqman probes were used for RT-PCR (Thermo Scientific): RORC (Hs01076112_m1), IL17A (Hs00936345_m1), IL22 (Hs01574154_m1), IL26 (Hs00218189_m1), IL23R (Hs00332759_m1), CCR6 (Hs00218189_m1), NFKBIZ (Hs00355476_m), DEFB4A (Hs00823638_m1), IL36G (Hs00219742_m1), and CCL20 (Hs00355476_m1).

[2] = test system: STAT3 phosphorylation in Ba/F3 cells stably expressing the human IL-21 receptor; assay: IL-21-induced phospho-STAT3 by flow cytometry; format: cell-based; conditions: 10 μM, 1 h pre-incubation, vs DMSO
Method: To assess whether Cpd A affected STAT3 activity we induced STAT3 phosphorylation in Ba/F3 cells stably expressing the human IL-21 receptor (kindly provided by Dr. Max Warncke, Novartis). Cells were pre-incubated for 1 h with 10 μM of Cpd A or with 1 μM of the pan-JAK inhibitor CP690550. To induce STAT3 activity, the cells were stimulated for 1.5 h with recombinant human IL-21 (3 nM), followed by two washing steps using buffer containing PBS/0.5% BSA. The cells were fixed with 2% paraformaldehyde for 15 min at room temperature, washed and resuspended in ice-cold 90% methanol solution and stored overnight at −20°C. The samples were washed and stained for 1 h with an Alexa 647-labeled anti-phospho (pY705)-STAT3 antibody (BD biosciences). After two washes the cells were analyzed using a LSR Fortessa (BD Bioscience) and analyzed using FlowJo software (Tree Star).

total human CD4+ T-cells = assay: Th17 polarization of total CD4+ T-cells, cytokine ELISA; format: cell-based; conditions: for IL-17 concentration in Th17 cell supernatants: 72 h
Method: as §1

human RORγt-LBD = molecular target: T1, human RORγt-LBD (Homo sapiens, UniProt P51449); assay: TR-FRET RIP140 co-activator peptide displacement from RORγt-LBD; format: biochemical; conditions: 1 h incubation, read-out: IC50, disruption of RIP140 peptide interaction with RORγt-LBD
T1 construct: human RORγt-LBD (264-518, produced at Novartis); made in house
T1 sequence (P51449 264-518): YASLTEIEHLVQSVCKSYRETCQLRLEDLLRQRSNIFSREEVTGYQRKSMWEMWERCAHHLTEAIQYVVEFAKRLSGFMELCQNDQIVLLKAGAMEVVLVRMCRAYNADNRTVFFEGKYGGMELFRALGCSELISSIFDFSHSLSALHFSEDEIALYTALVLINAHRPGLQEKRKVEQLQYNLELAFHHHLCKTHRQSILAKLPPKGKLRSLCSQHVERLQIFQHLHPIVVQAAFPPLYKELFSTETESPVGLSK
Method: Compound-mediated disruption of the interaction between the human RORγt-LBD (264-518, produced at Novartis) with a biotinylated RIP140 derived co-activator peptide (biotinyl-NH-Ahx-[…]-CONH2, Thermo Scientific) was quantified by TR-FRET as previously described ([34], [44]). Briefly, Cpd A was incubated with a mixture consisting of 6 nM His6-tagged RORγt-LBD, 90 nM biotinylated RIP140 co-activator peptide, 0.45 nM Cy5-labeled streptavidin (GE Healthcare), 1.5 nM Europium-labeled anti-His6 antibody (Perkin Elmer). After 1 h of incubation, the emissions were measured at 615 and 665 nm. Concentration-response curves were generated and IC50 values were calculated using the GraphPad Prism software package.

## Cc1ccc(C(=O)Nc2cn3ccnc3c(CN3CCN(c4noc(C(C)(C)C)n4)[C@@H](C)C3)c2C)cn1 [Cpd A, (S)-N-(8-((4-(5-(tert-butyl)-1,2,4-oxadiazol-3-yl)-3-methylpiperazin-1-yl)methyl)-7-methylimidazo[1,2-a]pyridin-6-yl)-6-methylnicotinamide]
[1]
  CCR6 gene expression: significantly attenuated
  IL17A gene expression: significantly attenuated
  IL17F gene expression: significantly attenuated
  IL22 gene expression: significantly attenuated
  IL23R gene expression: significantly attenuated
  IL26 gene expression: significantly attenuated
[2]
  IL-21-induced STAT3 phosphorylation (pY705): did not affect
Total human CD4+ T-cells; 0.13 nM (pharmacologically inactive concentration)
  IL-17 concentration in Th17 cell supernatants: 600 pg/mL
Total human CD4+ T-cells; 10 μM (active concentration)
  IL-17 concentration in Th17 cell supernatants: 150 pg/mL
Total human CD4+ T-cells; Homo sapiens, T-cell, total CD4+ T-cells, Th17 polarization 72 h, ELISA, read-out: IC50, IL-17A secretion
  IC50: 39 nM
Total human CD4+ T-cells; similar at low or high compound concentrations
  TNF-α concentration in Th17 cell supernatants: 4 ng/mL
Human RORγt-LBD
  IC50: 5.7 nM

— article PMC6443933, “Antagonizing Retinoic Acid-Related-Orphan Receptor Gamma Activity Blocks the T Helper 17/Interleukin-17 Pathway Leading to Attenuated Pro-inflammatory Human Keratinocyte and Skin Responses” (Frontiers in Immunology, 2019)
